Data from patent US20220323410A1, “OXYTOCIN ANTAGONIST DOSING REGIMENS FOR PROMOTING EMBRYO IMPLANTATION AND PREVENTING MISCARRIAGE” (ObsEva S.A., priority 2019, published 2022).
Values belong to the compound of their own block, whether it stands above or below them.

Tests used:
CYP2D6 = CYP2D6 (Homo sapiens, UniProt P10635); assay: Metabolism by CYP2D6 isoform; assay type: in vitro ADME; conditions: substantially pure (3E) diastereomer; also CYP2C19
Protocol: (§1) At five time points over the course of a 45 minute experiment, the compounds were analyzed by LC-MS/MS. The percentage of each compound remaining at each time point, along with the metabolic half-lives of each compound in the presence of each cytochrome P450 isoform, are indicated in Tables 10-12, below.

[1] = system: spontaneous uterine contractions; conditions: cited from earlier work
[2] = system: female human subjects undergoing embryo transfer therapy; assay: Clinical studies of embryo implantation in subjects undergoing embryo transfer therapy (Example 1); assay type: in vivo
Source text: (§2) A total of 247 female subjects were selected for treatment based on a variety of inclusion criteria. Of these, 244 subjects completed the study. The study was open to healthy female volunteers from 18 to 36 years of age that had previously undergone up to one IVF or ICSI cycle that resulting in a negative pregnancy test as assessed by hCG detection, despite the transfer of at least one embryo of good quality, which was defined as an embryo having from six to eight blastomeres of uniform size and shape on the day of embryo transfer, ooplasm having no granularity, absence of multinucleation, and a maximum fragmentation of 10%. Subjects included in the study had at least one functional ovary and were capable of communicating with the investigator and research staff and complying with the requirements of the study protocol. Data are presented in the form of mean (standard deviation).
Subjects included in the study underwent an initial screening period beginning up to 12 weeks prior to the day of oocyte retrieval from the subject. During this 12-week period, subjects underwent physical and gynecological examination in preparation for oocyte retrieval. […]
(§3) The embryo transfer procedure was conducted three days after the oocyte retrieval day (OPU+3 days). Subjects undergoing embryo transfer were monitored prior to initiating the procedure. […]

[3] = system: endometrial blood flow in human subjects; assay: Endometrial blood flow in human subjects (Example 4); conditions: in vivo
Source text: Values along the y-axis represent endometrial flow index (FI), a parameter that is proportional to the volumetric quantity of blood that circulates through the endometrium in a given period of time.
Values along the y-axis represent endometrial vascularity index (VI), a parameter that is proportional to the total quantity of blood vessels in a subject's endometrium.
Values along the y-axis represent vascularity flow index (VFI), a parameter that is proportional to the total quantity of blood that circulates through a given volume of a subject's endometrium.

[4] = Phase 2 clinical study of Example 1: serum level of compound (II) at embryo transfer; assay type: in vivo; conditions: female, human, mean
Source text: as §2
Subjects included in the study underwent an initial screening period beginning up to 12 weeks prior to the day of oocyte retrieval from the subject. During this 12-week period, subjects underwent physical and gynecological examination in preparation for oocyte retrieval. This analysis included a recordation of the subjects' vital signs, hematology and biochemistry analysis of blood samples withdrawn from the subjects, urinary analysis, and a comprehensive review of the subjects' medical histories.
At the conclusion of the screening period, subjects underwent controlled ovarian hyperstimulation by administration of a GnRH antagonist so as to prevent a premature rise in serum LH concentration. Concurrent pre-treatment with an oral contraceptive prior to controlled ovarian hyperstimulation was allowed, but not required. Final follicular maturation was performed with a single administration of hCG to the subject. […]
as §3

endometrial perfusion = assay: Uterine perfusion by 3D-power Doppler in healthy female volunteers; assay type: in vivo, human; conditions: baseline to 24 hours; both 900 mg and 1,800 mg doses
Protocol: (§4) Particularly, subjects were pre-treated with estradiol valerate at a dosage of 2 mg administered 3 times per day (TID) for 16 days. Administration of estradiol valerate was followed by vaginal progesterone at a dosage of 200 mg administered TID.
(§5) These assessments included measurements of uterine contractions by ultrasound and uterine perfusion by a 3D-power Doppler technique.
(§6) Mean and median changes in uterine contraction frequency and endometrial vascularity indices (particularly, endometrial flow index (FI), vascularity index (VI), and vascularity flow index (VFI)) were calculated. […] Differences in endometrial mRNA expression were identified and assessed for statistical significance.

[5] = system: uterine contractions in human subjects; assay: Uterine contractility in human subjects (Example 4); conditions: in vivo
Source text: Values along the y-axis represent the quantity of uterine contractions (UC) per minute.

CYP3A4 = CYP3A4 (Homo sapiens, UniProt P08684); assay: Metabolism by CYP3A4 isoform; assay type: in vitro ADME; conditions: substantially pure compound (II)
Sequence of CYP3A4 (P08684 whole entry, canonical isoform): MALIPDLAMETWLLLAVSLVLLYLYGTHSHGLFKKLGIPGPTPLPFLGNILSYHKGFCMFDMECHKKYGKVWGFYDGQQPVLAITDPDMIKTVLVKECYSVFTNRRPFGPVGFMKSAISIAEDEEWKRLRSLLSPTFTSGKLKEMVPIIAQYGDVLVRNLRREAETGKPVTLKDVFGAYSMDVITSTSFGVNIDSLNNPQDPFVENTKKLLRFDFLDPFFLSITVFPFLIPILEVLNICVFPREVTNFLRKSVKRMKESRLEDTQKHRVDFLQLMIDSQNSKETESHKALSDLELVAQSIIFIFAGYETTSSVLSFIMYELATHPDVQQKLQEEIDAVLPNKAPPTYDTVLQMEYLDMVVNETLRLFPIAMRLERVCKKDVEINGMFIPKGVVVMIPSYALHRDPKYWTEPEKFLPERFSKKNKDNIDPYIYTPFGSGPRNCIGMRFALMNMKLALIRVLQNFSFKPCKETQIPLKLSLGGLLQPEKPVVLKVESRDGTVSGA
Protocol: as §1

[6] = system: subjects undergoing embryo transfer; assay: Pregnancy and live birth rates, clinical study in subjects undergoing embryo transfer; assay type: in vivo, human; conditions: post hoc, pre-dose serum P4 quartiles 1-3; significant dose-dependent fashion (p<0.02)
Protocol: From one to two embryos of good quality were transferred to each subject. To reduce uterine contractions at the time of embryo transfer, soft or ultra-soft catheters were used and contact with the uterine fundus was avoided. Any difficulties that occurred during the embryo transfer procedure were recorded, including instances in which uterine sounding or cervical dilation were required, instances in which a harder catheter was required, or instances in which blood was found in any part of the catheter.
Approximately 1 hour following embryo transfer, subjects underwent a final physical examination and were subsequently discharged from the clinical unit until the first follow-up visit, which occurred at about 14 days following oocyte retrieval (OPU+14 days). At this time, subjects underwent a physical examination as well as a blood sample analysis to assess pregnancy by detection of hCG. […] Pregnancy status was monitored by detecting embryo heartbeat. […]
Positive blood pregnancy test at 14 days following oocyte retrieval and positive embryo heartbeat at 10 weeks following oocyte retrieval were assessed in the same manner as described above. Change from baseline to the time of embryo transfer in uterine contraction rate was analyzed by the Wilcoxon Rank Sum Test by comparing the uterine contraction rate associated with each dose to that observed with placebo-treated subjects.

uterine contractions = assay: Uterine contractions by ultrasound in healthy female volunteers; assay type: in vivo, human; conditions: 1,800 mg dose
Protocol: as §4, §5, §6

[7] = Concentration of compound (II) after single oral dose in healthy female volunteers; assay type: in vivo, human; conditions: oral administration of either the 900 mg or the 1,800 mg dose; FIG. 6
Protocol: as §4

[8] = system: endometrial RNA transcript expression; assay: Endometrial RNA transcript expression by RNA-Seq in healthy female volunteers; assay type: in vivo, human; conditions: 900 mg
Protocol: as §4, §5, §6
Using an RNA-Seq assay, each subject's expression of a variety of genes, including DPP4, CNTNAP3, CNTN4, CXCL12, TNXB, CTSE, OLFM4, KRT5, KRT6A, and IDO2, was then assessed to determine whether the expression of each gene increased, decreased, or underwent no significant change due to administration of the compound or placebo.

[9] = crystal form with XRPD peaks of Table 1; cited from earlier work

Sequence of CYP2D6 (P10635 whole entry, canonical isoform): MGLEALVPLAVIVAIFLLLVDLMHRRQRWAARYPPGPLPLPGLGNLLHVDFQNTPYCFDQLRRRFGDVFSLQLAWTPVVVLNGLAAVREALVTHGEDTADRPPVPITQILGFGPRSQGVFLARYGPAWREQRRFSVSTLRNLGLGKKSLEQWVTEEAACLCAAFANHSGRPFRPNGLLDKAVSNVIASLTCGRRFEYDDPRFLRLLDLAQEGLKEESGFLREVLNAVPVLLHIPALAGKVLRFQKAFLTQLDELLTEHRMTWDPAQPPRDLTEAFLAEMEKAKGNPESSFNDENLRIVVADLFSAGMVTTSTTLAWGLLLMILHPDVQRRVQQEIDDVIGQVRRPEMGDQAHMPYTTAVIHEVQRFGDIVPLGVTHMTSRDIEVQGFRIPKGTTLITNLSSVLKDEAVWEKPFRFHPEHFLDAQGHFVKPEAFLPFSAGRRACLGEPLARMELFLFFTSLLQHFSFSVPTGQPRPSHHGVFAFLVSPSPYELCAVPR

SMILES: CO/N=C1\C[C@@H](CO)N(C(=O)c2ccc(-c3ccccc3C)cc2)C1 [(3E) isomer, (3E,5S)-5-(hydroxymethyl)-1-[(2′-methyl-1,1′-biphenyl-4-yl)carbonyl]pyrrolidin-3-one O-methyloxime]
Preferential metabolism by cytochrome P450 isoform (CYP2D6): preferentially metabolized by cytochrome P450 isoforms 2D6 (CYP2D6) and 2C19 (CYP2C19)

concentration at 4 hours ([4]; 100 mg oral dose about 4 hours prior to embryo transfer, n = 62): 484 ng/mL
concentration at 4 hours ([4]; 300 mg oral dose about 4 hours prior to embryo transfer, n = 60): 1450 ng/mL
concentration at 4 hours ([4]; 900 mg oral dose about 4 hours prior to embryo transfer, n = 60): 4160 ng/mL
Time at which maximum concentration is reached [7]: about 4 hours
SMILES: CO/N=C1/C[C@@H](CO)N(C(=O)c2ccc(-c3ccccc3C)cc2)C1 [compound (II), (3Z,5S)-5-(hydroxymethyl)-1-[(2′-methyl-1,1′-biphenyl-4-yl)carbonyl]pyrrolidin-3-one O-methyloxime]
Reduction in spontaneous uterine contractions ([1]; 10, 30, and 60 mg/kg, anesthetized late-term pregnant rats): dose-dependent reduction in spontaneous uterine contractions
Inhibitory activity with respect to uterine contraction versus (3E) diastereomer ([1]; same vehicle, same model organism): markedly higher than that of the substantially pure (3E) diastereomer
successful embryo implantation rate ([2]; dose-dependent, particularly strong at pre-treatment serum P4 below 320 nM): improve successful embryo implantation rate
risk of embryo implantation failure ([2]; human subjects that previously underwent ovarian hyperstimulation and oocyte retrieval): reduce the risk of embryo implantation failure
flow of blood to the endometrium [3]: augment the flow of blood to the endometrium
Endometrial perfusion parameters, median values (endometrial perfusion): marked and sustained increases in median values
uterine contractility [5]: reduce uterine contractility
Preferential metabolism by cytochrome P450 isoform (CYP3A4): preferentially metabolized by cytochrome P450 isoform 3A4 (CYP3A4)
Pregnancy and live-birth rates versus placebo group [6]: overall increase in pregnancy and live-birth rates in the treatment arms versus the placebo group
Proportion of subjects showing less than one uterine contraction per minute versus placebo (uterine contractions; p=0.0121): significance was seen at the 8-hour time point
Number of uterine contractions per minute versus placebo (uterine contractions; p=0.0923 at 4 hours, p=0.0081 at 8 hours): contraction-reducing effects were observed from the 4-hour time point onwards
mRNA expression in endometrial biopsy tissue compared to placebo [8]: No differences in mRNA expression

SMILES: CO/N=C1/C[C@@H](CO)N(C(=O)c2ccc(-c3ccccc3C)cc2)C1 [crystal form of compound (II), (3Z,5S)-5-(hydroxymethyl)-1-[(2′-methyl-1,1′-biphenyl-4-yl)carbonyl]pyrrolidin-3-one O-methyloxime]
stability to aqueous media and physical stress [9]: enhanced stability to aqueous media and physical stress
